From article PMC10351538 (Journal of Enzyme Inhibition and Medicinal Chemistry, 2023) come the findings set out here.

This assay has as its target triosephosphate isomerase (TcTIM WT) (Trypanosoma cruzi, UniProt P52270). The assay is described as follows: coupled enzyme assay. Type of assay: biochemical. As to conditions: read-out: approximately 95% inactivation.

Sequence of triosephosphate isomerase (TcTIM WT) (P52270 whole entry): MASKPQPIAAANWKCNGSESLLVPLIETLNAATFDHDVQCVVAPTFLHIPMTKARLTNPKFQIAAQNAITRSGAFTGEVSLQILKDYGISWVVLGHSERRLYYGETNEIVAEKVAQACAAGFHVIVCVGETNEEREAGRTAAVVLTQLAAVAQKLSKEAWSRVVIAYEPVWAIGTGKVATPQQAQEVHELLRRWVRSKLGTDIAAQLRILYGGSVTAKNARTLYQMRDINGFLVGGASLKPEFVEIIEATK

For the molecule `COCCCOc1ccnc(C[S+]([O-])c2nc3ccccc3[nH]2)c1C` (stereo not shown) [Rbz, rabeprazole], the IC95 is approximately 75 µM.
